Results reported in US8026271B2, “Formulations of indol-3-yl-2-oxoacetamide compounds” (National Health Research Institutes, priority 2008, dated 2011).
Values after ≈ are worked out from the molar mass of the structure shown. Where two headings read alike, the source gives them in different places.

Columns and labels:
[1] = Oral bioavailability of BPR0C261 (po vs IV PK profiles, plasma by HPLC-Tandem Mass spectrometry); assay type: in vivo; conditions: mouse, 2 mg/kg, po by gavage, read-out: Oral bioavailability (F %)
Protocol: The oral bioavailability of BPR0C261 was assessed by comparing the pharmacokinetic (“PK”) profiles obtained from orally administered (“po”) BPR0C261 in various oral formulation described herein with the PK profile obtained from intravenously administered (“IV”) BPR0C261.
An intravenous formulation of BPR0C261 (carriers: 5% DMSO, 25% Cremophor EL, and 70% water, v/v/v) was administered intravenously by a bolus injection to a group of three mice each via the tail vein, in a single dose of 2 mg/Kg body weight. A blood sample (0.15 mL) was drawn at different points (pre-dose, 2 min, 5 min, 15 min, 30 min. 1 hr, 2 hr, 4 hr, 6 hr, 8 hr, and 24 hr after dosing) from each animal via the cardiac puncture and stored in ice (0-5° C.). […]
Plasma was separated from the blood sample by centrifugation at 15,000 g for 15 min at 4° C. […] All plasma samples were analyzed for the BPR0C261 concentrations by HPLC-Tandem Mass spectrometry.
BPR0C261 plasma concentration data were used to obtain the PK profile for the IV or po administration, i.e., a plasma-concentration vs. time curve. The area under the curve (“AUC”) was then calculated. Oral bioavailability (F %) was determined by comparing the dose-normalized area under the curve for the oral formulation (“AUCpo/dosepo”) with that for the intravenous formulation (“AUCIV/doseIV”), i.e., F %=[AUCpo/dosepo]/[AUCIV/doseIV].

[2] = Solubility of BPR0C261 in different carriers or mixed carriers; assay type: physicochemical; conditions: room temperature
Protocol: The solubility of BPR0C261 in different drug carriers or mixed carriers was evaluated. The solubility is defined as the maximum amount of a compound dissolved in a carrier or mixed carrier at room temperature.

Cc1cc(Cn2cc(C(=O)C(=O)Nc3cc(C)ns3)c3ccccc32)on1 [BPR0C261, N-(3-methylisothiazol-5-yl)-2-[1-(3-methylisoxazol-5-ylmethyl)-1H-indol-3-yl]-2-oxoacetamide]
bioavailability ([1]; formulation containing 5% DMSO, 25% Cremophor EL, and 70% water (v/v/v), vs IV 2 mg/Kg): 18% | bioavailability ([1]; formulations containing TPGS, Transcutol, and optionally PEG 400, vs IV 2 mg/Kg): 25 to 80% | solubility ([2]; aqueous with cosolvent or surfactant or cyclodextrin, carrier 3: DMSO (20%), Tween 80 (10%), and DDW (70%)): < 5000 µg/mL | solubility ([2]; aqueous with cosolvent or surfactant or cyclodextrin, carrier 13: DMSO (5%), Cremophor EL (25%), and DDW (70%)): < 5000 µg/mL | solubility ([2]; aqueous with cosolvent or surfactant or cyclodextrin, carrier 14: Methylcellulose (1%), Tween 80 (2%), PEG 400 (10%), and DDW (87%)): < 1000 µg/mL | solubility ([2]; carrier 1: Double distilled water (DDW)): ~0.12 µg/mL (≈ 0.000315 mM) | solubility ([2]; organic solvent or mixture, carrier 2: DMSO): ~5000 µg/mL (≈ 13.1 mM) | solubility ([2]; organic solvent or mixture, carrier 4: Ethanol (3%), Glycerol (2%), PEG 400 (70%), PG (20%), and Transcutol (5%)): 10000 to 30000 µg/mL (≈ 26.3 to 78.9 mM) | solubility ([2]; organic solvent or mixture, carrier 5: Glycerol (5%) and PEG 400 (95%)): 10000 to 30000 µg/mL (≈ 26.3 to 78.9 mM) | solubility ([2]; organic solvent or mixture, carrier 6: TPGS (20%) and PEG 400 (80%)): 10000 to 30000 µg/mL (≈ 26.3 to 78.9 mM) | solubility ([2]; organic solvent or mixture, carrier 7: Transcutol (10%) and PEG 400 (90%)): 10000 to 30000 µg/mL (≈ 26.3 to 78.9 mM) | solubility ([2]; organic solvent or mixture, carrier 8: DMSO (10%), PEG 400 (80%), and propylene glycol (10%)): 10000 to 30000 µg/mL (≈ 26.3 to 78.9 mM) | solubility ([2]; organic solvent or mixture, carrier 9: Transcutol (10%), Cremophor EL (20%), and PEG 400 (70%)): 10000 to 30000 µg/mL (≈ 26.3 to 78.9 mM) | solubility ([2]; organic solvent or mixture, carrier 10: TPGS (20%), Transcutol (20%), and PEG 400 (60%)): ~50000 µg/mL (≈ 131 mM) | solubility ([2]; organic solvent or mixture, carrier 11: TPGS (40%), Transcutol (20%), and PEG 400 (40%)): ~50000 µg/mL (≈ 131 mM) | solubility ([2]; organic solvent or mixture, carrier 12: TPGS (75%) and Transcutol (25%)): ~50000 µg/mL (≈ 131 mM)
